Holding throughout (format): cell-based
In test [1] the target is recombinant hCaV3.3 channels (Homo sapiens, UniProt Q9P0X4). Briefly: Whole-cell patch-clamp QPatch 16 X, CaV3.3. As for the experimental part:
(§1) The human embryonic kidney 293 (HEK 293) cell lines (from Emmanuel Bourinet, Montpellier, France) stably expressing CaV3.2 or CaV3.3 were cultured under 5% carbon dioxide at 37 °C in Dulbecco’s Modified Eagle Medium (DMEM) Glutamax (Gibco, Life Technologies, Carlsbad, CA, USA) supplemented with 10% (v/v) fetal bovine serum (FBS), 100 U/mL penicillin, 100 μg/mL streptomycin (Gibco, Life Technologies), and 750 μg/mL geneticin (G418) (Gibco, Life Technologies). The Chinese Hamster Ovary (CHO) cell lines (Emmanuel Bourinet, Montpellier, France) expressing CaV3.1 were cultured under 5% carbon dioxide at 37 °C in Alpha Minimum Essential Media (MEM) Glutamax (Gibco, Life Technologies), supplemented with 10% (v/v) fetal bovine serum (FBS) and 300 μg/mL geneticin (G418) (Gibco, Life Technologies). The human neuroblastoma SH-SY5 Y cells (Victor Diaz, Goettingen, Germany) were cultured under 5% carbon dioxide at 37 °C in RPMI 1640 antibiotic-free medium (Invitrogen, Carlsbad, CA, USA), supplemented with 15% FBS and 2 mM GlutaMAX™ (Invitrogen). D-PBS (Gibco, Life Technologies) was used to wash the cells, and 0.25% Trypsin-EDTA (Gibco, Life Technologies) was used to detach cells from the flask surface. They were split in a ratio of 1:5 (ideally 1000 cells/cm^2) when they reached 70%–80% confluence (every 2–3 days). Transiently transfected CaV3.1HEK293 T cells were used in FLIPR Assays. HEK 293 T cells were cultured under 5% carbon dioxide at 37 °C in DMEM supplemented with 10% (v/v) FBS. D-PBS was used to wash the cells, and 0.25% Trypsin-EDTA was used to detach cells from the flask surface. The cells were split and seeded at 6 million cells per T175 flask, to reach 70%–80% confluence after 24 h. The next day, 12 μg DNA of human CaV3.1 was incubated in 900 μL serum-free DMEM with 36 μL FuGENE HD transfection reagent (Promega Corporation, Madison, WI, US) (1:3 DNA/Fugene ratio) for 20 min, and then the mixture was added into the cell flask slowly, drop by drop. After the transfection, the cells were cultured under 5% carbon dioxide at 37 °C for 24 h and then moved to a 28 °C incubator.
(§2) Whole-cell patch-clamp experiments were performed on an automated electrophysiology platform QPatch 16 X (Sophion Bioscience A/S, Ballerup, Denmark) in single-hole configuration using 16-channel planar patch chip QPlates (Sophion Bioscience A/S). The extracellular recording solution contained, in mM: TEACl 157, MgCl2 0.5, CaCl2 5, and HEPES 10; pH 7.4 adjusted with TEAOH; and osmolarity 320 mOsm. The intracellular pipette solution contained, in mM: CsF 140, EGTA 1, HEPES 10, and NaCl 10; pH 7.2 adjusted with CsOH; and osmolarity 325 mOsm. […]
(§3) Data were plotted and analyzed using GraphPad Prism v7.0 (GraphPad Software Inc., San Diego, CA, USA). […]
(The patch-clamp technique gives a direct electrical read-out from membranes.)

Test [2] concerns the target recombinant hCaV3.2 channels (Homo sapiens, UniProt O95180). Put plainly: Whole-cell patch-clamp QPatch 16 X, CaV3.2. How it is done:
as §1, §2, §3

A further test deals with T1, human CaV3.1 (Homo sapiens, UniProt O43497).
T1 construct: expressed in transfected cells; host or cells: HEK 293T, transient transfection (FuGENE HD)
Put plainly: T-type calcium channel window current FLIPR assay, CaV3.1. As for the experimental part:
as §1
HEK 293 cells stably expressing CaV3.2 or CaV3.3 were seeded into 384-well black wall clear bottom plates (Corning, Lowell, MA, USA) at a density of 30,000 cells per well. Transiently transfected CaV3.1HEK293 T cells were seeded into 384-well black wall clear bottom plates at a density of 60,000 cells per well. Once the cells reached 90%–95% confluence after 24 h, the media were removed from the wells and replaced with 20 μL of 10% calcium 4 dye (Molecular Devices, Sunnyvale, CA, USA) in HBSS-HEPES (containing 5 mM KCl, 10 mM HEPES, 140 mM NaCl, 10 mM glucose, and 0.5 mM CaCl2, pH 7.4) with 0.1% bovine serum albumin (BSA). The cells were incubated for 30 min at 37 °C in the presence of 5% carbon dioxide. Each well on the reagent plates for the first addition contained 15 μL different concentrations of compounds dissolved in HBSS-HEPES containing 0.1% BSA and <0.1% DMSO and was incubated for 20 min after loading. Positive and negative controls contained 15 μL of HBSS-HEPES (0.1% BSA) alone. The plates were placed in the FLIPR^TETRA (Molecular Devices, Sunnyvale, CA, USA) programmed to measure maximum fluorescence intensity following a second addition of the agonist 5 mM CaCl2. The data acquisition parameters were adjusted as follows: Baseline fluorescence of 1500–2000 arbitrary fluorescence units (AFU), emission wavelength of 515–575 nm, and excitation wavelength of 470–495 nm. HBSS-HEPES (0.1% BSA) was used in the second addition as a negative control. One fluorescence reading was taken before the second addition. Then the fluorescence readings were recorded every two seconds for 300 s. Raw fluorescence readings in the form of relative light units were converted to response over baseline using ScreenWorks® (Molecular Devices, version 3.2.0.14) software.
Data were plotted and analyzed using GraphPad Prism v7.0 (GraphPad Software Inc., San Diego, CA, USA).

Bounds are passed on as bounds.

As usually defined, the Emax is the maximal effect, on the per cent scale that the assay sets. As a reminder, the inhibition is the percentage by which the read-out fell short of the control. Usually IC50 stands for the concentration needed to halve the response being measured.

Chain of recombinant hCaV3.2 channels (O95180 whole entry): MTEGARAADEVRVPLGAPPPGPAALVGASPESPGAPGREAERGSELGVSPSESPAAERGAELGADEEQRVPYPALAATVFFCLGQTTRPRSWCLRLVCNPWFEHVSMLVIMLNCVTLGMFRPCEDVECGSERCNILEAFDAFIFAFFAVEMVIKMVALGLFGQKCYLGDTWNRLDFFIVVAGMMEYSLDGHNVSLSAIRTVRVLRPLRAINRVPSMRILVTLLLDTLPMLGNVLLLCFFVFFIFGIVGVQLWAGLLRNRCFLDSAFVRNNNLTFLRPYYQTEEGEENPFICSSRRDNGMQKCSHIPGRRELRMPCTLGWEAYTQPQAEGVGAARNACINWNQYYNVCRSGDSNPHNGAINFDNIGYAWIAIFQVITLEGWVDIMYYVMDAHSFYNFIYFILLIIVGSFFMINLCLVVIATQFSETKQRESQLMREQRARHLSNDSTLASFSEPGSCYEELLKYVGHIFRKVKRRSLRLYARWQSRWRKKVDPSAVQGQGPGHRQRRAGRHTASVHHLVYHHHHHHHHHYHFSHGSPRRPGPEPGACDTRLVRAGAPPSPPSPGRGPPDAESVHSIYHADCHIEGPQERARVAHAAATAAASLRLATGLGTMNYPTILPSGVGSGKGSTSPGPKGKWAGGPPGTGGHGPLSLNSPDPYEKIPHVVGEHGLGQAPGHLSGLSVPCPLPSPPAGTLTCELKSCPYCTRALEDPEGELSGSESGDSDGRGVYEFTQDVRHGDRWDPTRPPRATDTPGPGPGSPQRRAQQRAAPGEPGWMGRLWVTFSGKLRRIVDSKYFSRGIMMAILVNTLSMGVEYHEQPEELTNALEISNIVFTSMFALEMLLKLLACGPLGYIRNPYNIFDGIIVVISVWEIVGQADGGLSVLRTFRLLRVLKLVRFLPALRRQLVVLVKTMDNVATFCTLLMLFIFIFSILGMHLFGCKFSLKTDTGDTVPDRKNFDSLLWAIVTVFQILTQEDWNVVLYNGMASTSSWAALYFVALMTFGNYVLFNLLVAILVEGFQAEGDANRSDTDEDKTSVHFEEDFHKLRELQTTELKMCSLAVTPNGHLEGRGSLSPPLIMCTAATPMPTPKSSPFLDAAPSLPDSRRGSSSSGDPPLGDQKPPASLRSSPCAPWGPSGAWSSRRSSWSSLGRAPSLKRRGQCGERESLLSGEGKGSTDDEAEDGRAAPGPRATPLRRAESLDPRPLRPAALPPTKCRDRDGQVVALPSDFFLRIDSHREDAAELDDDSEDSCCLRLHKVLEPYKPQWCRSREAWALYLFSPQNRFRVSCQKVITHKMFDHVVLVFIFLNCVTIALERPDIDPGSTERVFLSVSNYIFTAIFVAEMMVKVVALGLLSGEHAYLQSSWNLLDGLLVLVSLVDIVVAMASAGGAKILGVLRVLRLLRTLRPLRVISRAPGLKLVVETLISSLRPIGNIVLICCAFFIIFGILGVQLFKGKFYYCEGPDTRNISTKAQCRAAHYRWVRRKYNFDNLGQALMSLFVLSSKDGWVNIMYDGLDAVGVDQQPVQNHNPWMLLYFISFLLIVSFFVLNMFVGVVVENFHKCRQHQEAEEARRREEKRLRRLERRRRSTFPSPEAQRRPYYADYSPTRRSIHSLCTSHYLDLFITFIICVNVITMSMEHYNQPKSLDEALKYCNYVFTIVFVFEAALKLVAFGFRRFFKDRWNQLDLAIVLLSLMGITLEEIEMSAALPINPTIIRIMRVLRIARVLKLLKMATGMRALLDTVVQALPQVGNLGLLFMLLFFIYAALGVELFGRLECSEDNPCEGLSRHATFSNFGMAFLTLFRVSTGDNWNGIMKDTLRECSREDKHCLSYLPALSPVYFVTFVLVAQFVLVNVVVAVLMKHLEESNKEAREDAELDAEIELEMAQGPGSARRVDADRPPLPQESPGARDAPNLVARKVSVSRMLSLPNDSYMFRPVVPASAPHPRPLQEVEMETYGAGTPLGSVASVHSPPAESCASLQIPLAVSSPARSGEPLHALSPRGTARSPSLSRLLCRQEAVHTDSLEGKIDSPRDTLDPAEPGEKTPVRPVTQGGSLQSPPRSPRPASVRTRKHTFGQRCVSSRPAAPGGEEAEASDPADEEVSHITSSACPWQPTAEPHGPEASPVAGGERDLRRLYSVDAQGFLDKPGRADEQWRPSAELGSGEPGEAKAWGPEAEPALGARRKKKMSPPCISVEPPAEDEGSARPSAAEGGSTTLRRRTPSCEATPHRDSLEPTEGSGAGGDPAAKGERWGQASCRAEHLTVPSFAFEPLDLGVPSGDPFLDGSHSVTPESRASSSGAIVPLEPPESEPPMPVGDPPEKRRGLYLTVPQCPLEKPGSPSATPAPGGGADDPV
Chain of recombinant hCaV3.3 channels (Q9P0X4 whole entry): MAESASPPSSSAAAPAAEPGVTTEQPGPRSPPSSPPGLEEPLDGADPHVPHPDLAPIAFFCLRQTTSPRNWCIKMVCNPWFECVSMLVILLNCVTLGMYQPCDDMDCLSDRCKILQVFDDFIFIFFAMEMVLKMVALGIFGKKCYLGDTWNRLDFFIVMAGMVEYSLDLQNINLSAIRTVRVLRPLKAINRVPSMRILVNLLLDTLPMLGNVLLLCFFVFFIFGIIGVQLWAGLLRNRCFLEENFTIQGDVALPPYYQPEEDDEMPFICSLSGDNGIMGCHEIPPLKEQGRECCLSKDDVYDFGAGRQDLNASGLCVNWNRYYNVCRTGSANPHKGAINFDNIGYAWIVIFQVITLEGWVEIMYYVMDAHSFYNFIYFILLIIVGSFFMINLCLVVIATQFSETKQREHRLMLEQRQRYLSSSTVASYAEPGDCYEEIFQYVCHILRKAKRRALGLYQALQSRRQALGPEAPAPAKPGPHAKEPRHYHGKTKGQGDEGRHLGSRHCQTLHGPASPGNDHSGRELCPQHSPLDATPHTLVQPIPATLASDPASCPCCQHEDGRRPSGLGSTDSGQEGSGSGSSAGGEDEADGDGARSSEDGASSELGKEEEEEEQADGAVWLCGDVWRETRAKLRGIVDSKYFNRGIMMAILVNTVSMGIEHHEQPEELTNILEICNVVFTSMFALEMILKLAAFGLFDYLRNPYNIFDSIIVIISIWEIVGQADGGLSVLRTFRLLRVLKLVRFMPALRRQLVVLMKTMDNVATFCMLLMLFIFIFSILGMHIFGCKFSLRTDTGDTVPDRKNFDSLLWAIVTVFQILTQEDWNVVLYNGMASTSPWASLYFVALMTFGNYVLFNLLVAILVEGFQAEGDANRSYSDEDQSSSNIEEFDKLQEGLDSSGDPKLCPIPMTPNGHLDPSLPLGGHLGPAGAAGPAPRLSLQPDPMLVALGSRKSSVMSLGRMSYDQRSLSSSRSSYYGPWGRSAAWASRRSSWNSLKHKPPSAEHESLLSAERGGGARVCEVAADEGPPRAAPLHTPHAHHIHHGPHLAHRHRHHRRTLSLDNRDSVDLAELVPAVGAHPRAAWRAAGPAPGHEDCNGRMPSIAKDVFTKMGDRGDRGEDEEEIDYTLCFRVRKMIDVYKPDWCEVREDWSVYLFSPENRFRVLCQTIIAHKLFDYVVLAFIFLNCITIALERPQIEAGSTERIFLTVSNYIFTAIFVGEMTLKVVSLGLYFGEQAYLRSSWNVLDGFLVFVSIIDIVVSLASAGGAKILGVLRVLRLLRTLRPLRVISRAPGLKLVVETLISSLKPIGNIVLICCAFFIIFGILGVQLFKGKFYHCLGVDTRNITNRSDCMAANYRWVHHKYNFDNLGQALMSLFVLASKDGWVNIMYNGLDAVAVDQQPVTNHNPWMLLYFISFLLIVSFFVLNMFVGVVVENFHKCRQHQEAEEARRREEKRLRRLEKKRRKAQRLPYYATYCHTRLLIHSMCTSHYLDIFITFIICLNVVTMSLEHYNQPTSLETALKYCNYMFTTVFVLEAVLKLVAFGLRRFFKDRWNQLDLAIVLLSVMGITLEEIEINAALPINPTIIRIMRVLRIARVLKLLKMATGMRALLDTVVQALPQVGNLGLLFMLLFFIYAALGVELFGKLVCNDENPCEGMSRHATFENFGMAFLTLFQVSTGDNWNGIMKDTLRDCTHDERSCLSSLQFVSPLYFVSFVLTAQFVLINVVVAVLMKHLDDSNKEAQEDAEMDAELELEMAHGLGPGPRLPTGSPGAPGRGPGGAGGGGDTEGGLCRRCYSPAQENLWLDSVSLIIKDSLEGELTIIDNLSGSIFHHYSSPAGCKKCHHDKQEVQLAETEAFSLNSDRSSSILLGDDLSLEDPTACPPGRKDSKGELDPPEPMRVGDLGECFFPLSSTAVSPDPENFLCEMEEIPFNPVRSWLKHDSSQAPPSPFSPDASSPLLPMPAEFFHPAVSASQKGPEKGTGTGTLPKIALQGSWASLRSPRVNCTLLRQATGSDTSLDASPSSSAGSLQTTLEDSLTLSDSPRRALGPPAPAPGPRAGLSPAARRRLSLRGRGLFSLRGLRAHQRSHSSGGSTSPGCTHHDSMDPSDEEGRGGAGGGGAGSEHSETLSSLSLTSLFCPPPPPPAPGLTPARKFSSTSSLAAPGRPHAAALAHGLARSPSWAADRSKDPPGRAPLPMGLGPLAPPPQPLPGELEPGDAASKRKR

As for `COC(=O)[C@H](Cc1c[nH]c2ccccc12)NC(=O)C(C)(c1c[nH]c2ccccc12)c1c[nH]c2ccccc12` [Compound 3, Methyl (2,2-di(1H-indol-3-yl)propanoyl)-L-tryptophanate], the Emax is at least 95% in test [1] (QPatch whole-cell, full inhibition, read-out: Emax value, inhibition of CaV3.3 whole-cell current); at least 95% in test [2] (QPatch whole-cell, full inhibition, read-out: Emax value, inhibition of CaV3.2 whole-cell current); 75.5% at human CaV3.1 (FLIPR, n = 3, read-out: Emax, inhibition for CaV3.1). The inhibition at 0.2 µM in test [1] (QPatch, 200 nM compound, read-out: Inhibition of the CaV3.3 peak current) was below 10%. Also, the half-maximal inhibitory concentration (IC50) in test [1] (QPatch, 200 ms steps to Vmax (−10 mV) from holding −90 mV, n = 5, mean ± SEM, read-out: IC50 CaV3.3 whole-cell current) was 15.8 ± 2.28 µM; in test [2] (QPatch, 200 ms steps to Vmax (−20 mV) from holding −90 mV, n = 4–5, mean ± SEM, read-out: IC50 CaV3.2 whole-cell current) it was 8.82 ± 2.3 µM; at human CaV3.1 (FLIPR window current assay, transiently transfected HEK293T, N = 3, mean ± SEM, read-out: IC50 CaV3.1 (LVA CaVs)), 58.6 ± 2.62 µM. The “Voltage-dependence of steady-state inactivation of CaV3.3, in words” value in test [1] (QPatch, in the presence of compound) is on record as “not significantly shifted”. Besides, the “Half-maximal steady-state inactivation V50 of CaV3.2 in the presence of compound” value in test [2] (0.6 µM compound, control V50 −65.40 ± 1.91 mV (n = 9), n = 4–5) was −76.36 ± 1.56 mV. Besides, in test [2] (steady-state inactivation, 0.6 µM compound, versus control), the “Shift of half-maximal inactivation V50 of CaV3.2 to hyperpolarized potentials” value amounted to 11 mV.

The record behind these values is PMC6315694, “Synthesis of Pseudellone Analogs and Characterization as Novel T-type Calcium Channel Blockers” (Marine Drugs, 2018).
